Laboratory results published in patent US20020032151A1, “Modulating the permeability of a physiological barrier with an agent that modulates tyrosine phosphorylation” (priority 1993, published 2002).
“Also recorded” adds a separate entry of the source. Like-named read-outs stand apart in the source and are kept apart here.

Assays:
[1] = tested on: MDCK strain I cells; test: Transcellular electrical resistance (TER) of filter-grown MDCK strain I cells; assay type: cell-based, canine
[2] = tested on: E-cadherin/catenin complex; assay type: cell-based, canine
[3] = tested on: pp60^v−src transfected rat 3Y1 cells; settings: pp60v-src transfected rat 3Y1 fibroblast cell line; Matsuyoshi et al. 1992; cited from earlier work
[4] = tested on: MDCK cells; assay type: cell-based, canine
[5] = tested on: BBECs; assay type: cell-based, bovine
[6] = tested on: BBECs; assay type: cell-based, bovine; remark: listed apart in the source
[7] = tested on: MDCK strain I cells; assay type: cell-based, canine
[8] = tested on: bovine brain microvessel endothelial cells (BBECs); assay type: cell-based
[9] = tested on: MDCK strain I cells; assay type: cell-based, canine; remark: listed apart in the source
[10] = tested on: ZO-1 and associated proteins; assay type: cell-based, canine
[11] = tested on: brain tissue from normal adult rat; test: Phosphotyrosine (4G10) label of blood vessels in rat brain tissue exposed to pervanadate; settings: rat brain tissue exposed to pervanadate (FIG. 10F)
Description: In these experiments, brain sections were labelled with an antibody to phosphotyrosine (monoclonal antibody 4G10) and labelled with a polyclonal antibody to collagen type IV to outline blood vessels. In sham operated animals, 4G10 label was restricted to a few large, peripherally located, vessels with a pattern of staining consistent with tyrosine phosphorylation of proteins at the borders of cells lining the vessels. After 24 hours of MCA occlusion an increase in 4G10 label was seen associated with microvessels located at the edge of the severely damaged tissue (see FIG. 10). The increase in 4G10 label was restricted to vessels in the area of the lesion, but not every vessel was labelled. 4G10 distribution in the microvessels is similar to that seen when brain tissue from normal adult rat is exposed to pervanadate, a drug that elevates levels of phosphotyrosine by inhibiting the enzymes responsible for tyrosine dephosphorylation.
Sections were air-dried and permeablised with 95% ethanol at −95° C. for 30 minutes followed by acetone at room temperature for 1 minute. All of the antibody incubations and washes used PBS containing 5×10^−4 M sodium vanadate. […]

[12] = tested on: MDCK cells; settings: Volberg et al. 1992; cited from earlier work
[13] = tested on: bovine brain microvessel endothelial cells (BBECs); settings: BBECs as well as endothelial cells derived from human brain; previously shown (Rubin et al. 1991); cited from earlier work

Compound: O=C(O)CN(CC(=O)O)c1ccccc1OCCOc1ccccc1N(CC(=O)O)CC(=O)O [BAPTA, bis- (O-aminophenoxy)-ethane-N,N,N′,N′-tetraacetic acid]
- change in TER ([1]; MDCK strain I cells, preformed pervanadate 0.01-0.1 mM (FIG. 1b), PAO 1-30 μM (FIG. 2a), BAPTA 2.5-3 mM): decrease in TER

Compound: OCC(S)CS (centres unmarked) [2,3-dimercaptopropanol]
- reversal of PAO-stimulated catenin tyrosine phosphorylation [2]: is reversed; also recorded: reversed catenin tyrosine phosphorylation
- block of PAO-induced decrease in TER by reducing agent ([1]; MDCK cells preincubated 10 minutes with 200 μM β-mercaptoethanol or 100 μM 2,3-dimercaptopropanol, 10 μM PAO, TER 30 minutes later (FIG. 2b)): blocked
- block of BAPTA-elicited decrease in TER ([1]; MDCK cells, 100 μM 2,3-dimercaptopropanol preincubation, 3 mM BAPTA (FIG. 2b)): did not block

Compound: [O]=[V]([O-])([O-])[O-] [vanadate]
- change in TER after addition of H2O2 to vanadate pretreated cells [1]: caused a rapid decrease in TER
- change in TER over a longer time period, vanadate alone [1]: caused a decrease in TER
- change in TER, vanadate alone [1]: did not cause a decrease in TER
- tyrosine phosphorylation of cadherin and β-catenin [3]: induced the tyrosine phosphorylation of E- or P-cadherin and β-catenin

Compound: pervanadate
- paracellular flux of sucrose [4]: increase the paracellular flux of sucrose
- tyrosine phosphorylation of proteins in whole cell lysates [5]: caused an increase in the tyrosine phosphorylation of many proteins
- anti-phosphotyrosine staining pattern [6]: initially caused an increase in staining at the adherens junction at the intercellular borders
- anti-phosphotyrosine staining pattern [7]: initially caused an increase in staining at the adherens junction at the intercellular borders
- change in TER [8]: caused a dose-dependent and rapid decrease in TER
- tyrosine phosphorylation of proteins in whole cell lysates [9]: caused an increase in the tyrosine phosphorylation of many proteins
- tyrosine phosphorylation of proteins in anti-E-cadherin immunoprecipitates [2]: stimulates the tyrosine phosphorylation of several catenins as well as E-cadherin; also recorded: caused an increase in the tyrosine phosphorylation of several proteins
- tyrosine phosphorylation of α-catenin in α-catenin immunoprecipitates [2]: could not be detected
- β-catenin content of phosphotyrosine immunoprecipitates [2]: is increased; also recorded: rapidly increased
- tyrosine phosphorylation of ZO-1 [10]: also stimulated tyrosine phosphorylation of ZO-1; also recorded: clearly resulted in the tyrosine phosphorylation
- tyrosine phosphorylation of ZO-2 [10]: clearly resulted in the tyrosine phosphorylation
- phosphotyrosine label of blood vessels [11]: induces detectable levels of phosphotyrosine in both large and small vessels; also recorded: induces increased phosphotyrosine in both small and large blood vessels
- change in TER [1]: elicited a decrease in TER
- reversibility of the induced decrease in TER by reducing agent if added early enough [1]: partially reversed
- effect on the tight junction, by immunostaining of ZO-1 [12]: had no effect on the tight junction
- tyrosine phosphorylation of proteins at the adherens junction [12]: elicited tyrosine phosphorylation of proteins at the adherens junction

Compound: OCCS [β-mercapto-ethanol, β-mercaptoethanol]
- block of PAO-induced decrease in TER by reducing agent [1]: not

Compound: CO[C@H]1[C@@H](OC)C[C@H](C)[C@@H](OC)C2=CC(=O)C=C(NC(=O)/C(C)=C/C=C\[C@H](OC)[C@@H](OC(N)=O)/C(C)=C/[C@@H]1C)C2=O [herbimycin A]
- effect of herbimycin A on PAO-induced increase in protein tyrosine phosphorylation [9]: attenuated the ability of PAO to increase protein tyrosine phosphorylation
- effect of herbimycin A alone on resistance [1]: did not affect resistance
- effect of herbimycin A pretreatment on PAO-induced decrease in transcellular electrical resistance [1]: attenuated the decrease in transcellular electrical resistance

Compound: Nc1ncnc2c1ncn2[C@@H]1O[C@@H]2COP(=O)(O)O[C@H]2[C@H]1O [cyclic AMP]
- effect of cyclic AMP on TER [13]: increases TER
